How the values were obtained:
[1] = Cytotoxicity against human RD cells assessed as reduction in cell viability after 12 hrs by CCK8 assay; assay type: cell-based
Coxsackievirus A16 = assay: Antiviral activity against Coxsackievirus A16 TA271 infected in human RD cells assessed as inhibition of virus-induced cytopathic effect preincubated with viral suspension for 2 hrs followed by cell addition and measured after 24 hrs by CCK-8 assay; assay type: functional, cell-based
[2] = Selectivity index, ratio of CC50 for cytotoxicity against human RD cells to EC50 for antiviral activity against Coxsackievirus A16 TA271 infected in human RD cells; assay type: toxicity, cell-based; conditions: read-out: Ratio CC50/EC50

Compound: NC(=O)c1ncn([C@@H]2O[C@H](CO)[C@@H](O)[C@H]2O)n1 [RIBAVIRIN]
- CC50 at 12 h [1]: 1480 µM
- Activity (Coxsackievirus A16): Dose-dependent effect
- EC50 (Coxsackievirus A16; Enterovirus A): 144 µM
- selectivity ratio [2]: 10.3
